Test results taken from the supplement of paper PMC10307832.

How the values were obtained:
Assay in all cases: relative viability (nuclei count vs DMSO), 5 days (fraction); higher = more cells survive
ABC-1 = tested on: ABC-1
Outline: (§1)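 Five library-drug doses in √10 steps were combined with a fixed anchor-drug dose, or a single drug was given alone, by pin tool to lung cancer cell lines in 1536-well plates the day after seeding. Nuclei were stained and counted after 5 days. Relative viability is the nuclei count in treated wells over that in vehicle wells, taken as the median of duplicate plates.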

CAL-12T = tested on: CAL-12T
Outline: as §1

COR-L 105 = tested on: COR-L 105
Outline: as §1

ChaGo-K-1 = tested on: ChaGo-K-1
Outline: as §1

EMC-BAC-2 = tested on: EMC-BAC-2
Outline: as §1

EPLC-272H = tested on: EPLC-272H
Outline: as §1

HCC-15 = tested on: HCC-15
Outline: as §1

HCC-78 = tested on: HCC-78
Outline: as §1

HOP-62 = tested on: HOP-62
Outline: as §1

LXF-289 = tested on: LXF-289
Outline: as §1

NCI-H1666 = tested on: NCI-H1666
Outline: as §1

NCI-H1755 = tested on: NCI-H1755
Outline: as §1

NCI-H1915 = tested on: NCI-H1915
Outline: as §1

NCI-H1975 = tested on: NCI-H1975
Outline: as §1

NCI-H2023 = tested on: NCI-H2023
Outline: as §1

NCI-H2085 = tested on: NCI-H2085
Outline: as §1

NCI-H2126 = tested on: NCI-H2126
Outline: as §1

NCI-H3122 = tested on: NCI-H3122
Outline: as §1

NCI-H322M = tested on: NCI-H322M
Outline: as §1

NCI-H358 = tested on: NCI-H358
Outline: as §1

NCI-H441 = tested on: NCI-H441
Outline: as §1

UMC-11 = tested on: UMC-11
Outline: as §1

CCN(CC)CCCCNc1ncc2cc(-c3cc(OC)cc(OC)c3)c(NC(=O)NC(C)(C)C)nc2n1 + CS(=O)(=O)N1CCN(Cc2cc3nc(-c4cccc5[nH]ncc45)nc(N4CCOCC4)c3s2)CC1 [Pictilisib] (partner 1 µM)
relative viability (ABC-1; first compound 0.01 µM): 0.686 | relative viability (ABC-1; first compound 0.03162 µM): 0.66 | relative viability (ABC-1; first compound 0.1 µM): 0.736 | relative viability (ABC-1; first compound 0.3162 µM): 0.818 | relative viability (ABC-1; first compound 1 µM): 0.671 | relative viability (CAL-12T; first compound 0.03162 µM): 0.322 | relative viability (CAL-12T; first compound 0.1 µM): 0.386 | relative viability (CAL-12T; first compound 0.3162 µM): 0.6 | relative viability (CAL-12T; first compound 1 µM): 0.397 | relative viability (COR-L 105; first compound 0.01 µM): 0.368 | relative viability (COR-L 105; first compound 0.03162 µM): 0.394 | relative viability (COR-L 105; first compound 0.1 µM): 0.418 | relative viability (COR-L 105; first compound 0.3162 µM): 0.445 | relative viability (COR-L 105; first compound 1 µM): 0.392 | relative viability (ChaGo-K-1; first compound 0.01 µM): 0.551 | relative viability (ChaGo-K-1; first compound 0.03162 µM): 0.559 | relative viability (ChaGo-K-1; first compound 0.1 µM): 0.95 | relative viability (ChaGo-K-1; first compound 0.3162 µM): 0.98 | relative viability (ChaGo-K-1; first compound 1 µM): 0.437 | relative viability (EMC-BAC-2; first compound 0.01 µM): 0.581 | relative viability (EMC-BAC-2; first compound 0.03162 µM): 0.507 | relative viability (EMC-BAC-2; first compound 0.1 µM): 0.546 | relative viability (EMC-BAC-2; first compound 0.3162 µM): 0.574 | relative viability (EMC-BAC-2; first compound 1 µM): 0.456 | relative viability (EPLC-272H; first compound 0.01 µM): 0.288 | relative viability (EPLC-272H; first compound 0.1 µM): 0.33 | relative viability (EPLC-272H; first compound 0.3162 µM): 0.298 | relative viability (EPLC-272H; first compound 1 µM): 0.184 | relative viability (HCC-15; first compound 0.01 µM): 0.813 | relative viability (HCC-15; first compound 0.03162 µM): 0.813 | relative viability (HCC-15; first compound 0.1 µM): 0.766 | relative viability (HCC-15; first compound 0.3162 µM): 0.929 | relative viability (HCC-15; first compound 1 µM): 0.715 | relative viability (HCC-78; first compound 0.03162 µM): 0.189 | relative viability (HCC-78; first compound 0.1 µM): 0.224 | relative viability (HCC-78; first compound 0.3162 µM): 0.218 | relative viability (HCC-78; first compound 1 µM): 0.185 | relative viability (HOP-62; first compound 0.01 µM): 0.732 | relative viability (HOP-62; first compound 0.03162 µM): 0.772 | relative viability (HOP-62; first compound 0.1 µM): 0.582 | relative viability (HOP-62; first compound 0.3162 µM): 0.747 | relative viability (HOP-62; first compound 1 µM): 0.985 | relative viability (LXF-289; first compound 0.01 µM): 0.769 | relative viability (LXF-289; first compound 0.03162 µM): 0.874 | relative viability (LXF-289; first compound 0.1 µM): 0.792 | relative viability (LXF-289; first compound 0.3162 µM): 0.676 | relative viability (LXF-289; first compound 1 µM): 0.386 | relative viability (NCI-H1666; first compound 0.01 µM): 0.363 | relative viability (NCI-H1666; first compound 0.03162 µM): 0.405 | relative viability (NCI-H1666; first compound 0.1 µM): 0.484 | relative viability (NCI-H1666; first compound 0.3162 µM): 0.595 | relative viability (NCI-H1666; first compound 1 µM): 0.367 | relative viability (NCI-H1755; first compound 0.01 µM): 0.403 | relative viability (NCI-H1755; first compound 0.03162 µM): 0.386 | relative viability (NCI-H1755; first compound 0.1 µM): 0.479 | relative viability (NCI-H1755; first compound 0.3162 µM): 0.381 | relative viability (NCI-H1755; first compound 1 µM): 0.258 | relative viability (NCI-H1915; first compound 0.01 µM): 0.998 | relative viability (NCI-H1915; first compound 0.03162 µM): 0.92 | relative viability (NCI-H1915; first compound 0.1 µM): 0.93 | relative viability (NCI-H1915; first compound 0.3162 µM): 1.03 | relative viability (NCI-H1915; first compound 1 µM): 0.915 | relative viability (NCI-H1975; first compound 0.01 µM): 0.28 | relative viability (NCI-H1975; first compound 0.03162 µM): 0.277 | relative viability (NCI-H1975; first compound 0.1 µM): 0.311 | relative viability (NCI-H1975; first compound 0.3162 µM): 0.322 | relative viability (NCI-H1975; first compound 1 µM): 0.255 | relative viability (NCI-H2023; first compound 0.01 µM): 0.22 | relative viability (NCI-H2023; first compound 0.03162 µM): 0.222 | relative viability (NCI-H2023; first compound 0.1 µM): 0.221 | relative viability (NCI-H2023; first compound 0.3162 µM): 0.232 | relative viability (NCI-H2023; first compound 1 µM): 0.193 | relative viability (NCI-H2085; first compound 0.01 µM): 0.432 | relative viability (NCI-H2085; first compound 0.03162 µM): 0.46 | relative viability (NCI-H2085; first compound 0.1 µM): 0.233 | relative viability (NCI-H2085; first compound 0.3162 µM): 0.512 | relative viability (NCI-H2085; first compound 1 µM): 0.46 | relative viability (NCI-H2126; first compound 0.01 µM): 0.498 | relative viability (NCI-H2126; first compound 0.03162 µM): 0.489 | relative viability (NCI-H2126; first compound 0.1 µM): 0.508 | relative viability (NCI-H2126; first compound 0.3162 µM): 0.523 | relative viability (NCI-H2126; first compound 1 µM): 0.477 | relative viability (NCI-H3122; first compound 0.01 µM): 0.618 | relative viability (NCI-H3122; first compound 0.03162 µM): 0.598 | relative viability (NCI-H3122; first compound 0.1 µM): 0.674 | relative viability (NCI-H3122; first compound 0.3162 µM): 0.64 | relative viability (NCI-H3122; first compound 1 µM): 0.592 | relative viability (NCI-H322M; first compound 0.01 µM): 0.573 | relative viability (NCI-H322M; first compound 0.03162 µM): 0.47 | relative viability (NCI-H322M; first compound 0.1 µM): 0.499 | relative viability (NCI-H322M; first compound 0.3162 µM): 0.566 | relative viability (NCI-H322M; first compound 1 µM): 0.456 | relative viability (NCI-H358; first compound 0.01 µM): 0.353 | relative viability (NCI-H358; first compound 0.03162 µM): 0.282 | relative viability (NCI-H358; first compound 0.1 µM): 0.38 | relative viability (NCI-H358; first compound 0.3162 µM): 0.35 | relative viability (NCI-H358; first compound 1 µM): 0.3 | relative viability (NCI-H441; first compound 0.01 µM): 0.48 | relative viability (NCI-H441; first compound 0.03162 µM): 0.554 | relative viability (NCI-H441; first compound 0.1 µM): 0.412 | relative viability (NCI-H441; first compound 0.3162 µM): 0.53 | relative viability (NCI-H441; first compound 1 µM): 0.407 | relative viability (UMC-11; first compound 0.01 µM): 0.85 | relative viability (UMC-11; first compound 0.03162 µM): 0.806 | relative viability (UMC-11; first compound 0.1 µM): 0.987 | relative viability (UMC-11; first compound 0.3162 µM): 0.989 | relative viability (UMC-11; first compound 1 µM): 0.752
